Converted amounts (≈) assume the structure as drawn. Read-outs that look alike come from different tables or passages of the source.
How the values were obtained:
[1] = system: Streptococcus viridans group; assay: MIC, 25 ocular isolates, broth microdilution (Example 8); format: cell-based
Protocol: (§1) Mueller-Hinton Broth supplemented with 2% lysed horse blood in tubes was inoculated with 25 ocular isolates of Streptococcus pneumoniae, Streptococcus viridans group, and Moraxella species (including Moraxella catarrhalis) plus two controls (Staphylococcus aureus and E. coli) and incubated at 37° C. overnight. Additionally, Mueller-Hinton Broth in tubes was inoculated with two controls (Staphylococcus aureus and E. coli) and incubated at 37° C. overnight on a shaker set at 250 rpm.
(§2) On the day of testing, a 640 μg/ml (1280 μg/ml for Serratia marcescens and Pseudomonas aeruginosa) concentration was prepared from a 1% stock solution in 0.01% acetic acid, 0.2% BSA in polypropylene tubes.
(§3) Serial doubling dilutions in 0.01% acetic acid, 0.2% BSA in 96 well polypropylene plates, which are used as reservoirs for the inoculation of the test plates, were carried out to obtain serial dilutions of test agents at 10 times the required test concentrations: 640, 320, 160, 80, 40, 20, 10, 5, 2.5, 1.25, and 0.625 μg/ml (1280, 640, 320, 160, 80, 40, 20, 10, 5, 2.5, and 1.25 μg/ml for Serratia marcescens and Pseudomonas aeruginosa).
(§4) Ten μl of diluted 10×test agents was added to each well of one row of the 96 well polypropylene plates from column 2 to column 12 (column 1 is a control for bacteria alone, with no peptide). Test agent concentrations in columns 2-12 were as follows: 64, 32, 16, 8, 4, 2, 1, 0.5, 0.25, 0.125, and 0.0625 μg/ml (128, 64, 32, 16, 8, 4, 2, 1, 0.5, 0.25, and 0.125 μg/ml for Serratia marcescens and Pseudomonas aeruginosa). The same peptide was in each of the 8 rows. One plate contained dilutions of one test agent and 8 bacterial isolates.
(§5) On the day of testing, the overnight bacterial broth cultures of Streptococcus pneumoniae, Streptococcus viridans and Moraxella species (including Moraxella catarrhalis) plus two controls (Staphylococcus aureus and E. coli) were diluted in 5 ml of trypticase soy broth to yield turbidity equal to a 0.5 McFarland standard. The final inoculum for MIC testing for Streptococcus pneumoniae, Streptococcus viridans and Moraxella species (including Moraxella catarrhalis) was achieved by placing 0.1 ml of the turbidity adjusted sample to 5 ml of Mueller-Hinton broth containing 2% lysed horse red blood cells.
(§6) Ninety μl of the bacterial suspensions was dispensed in each well from column 1 to column 12. Each bacterial isolate was placed in one row of a 96 well polypropylene plate containing the test agents. The plates were placed on shaker at 15 minutes at room temperature, and then incubated at 37° C. overnight. MICs were determined visually as the lowest concentration of drug that inhibits visible bacterial growth.

[2] = system: Moraxella species (including Moraxella catarrhalis); assay: as above; format: cell-based; conditions: Moraxella
Protocol: as §1, §2, §3, §4, §5, §6

Compound: N=C(N)NCCCCC(=O)Nc1cc(C(F)(F)F)cc(NC(=O)c2cnc(C(=O)Nc3cc(C(F)(F)F)cc(NC(=O)CCCCNC(=N)N)c3SCCN)cn2)c1SCCN [Oligomer 5]
- MIC50 ([1]; 25 isolates, Row 13): 16 µg/mL (≈ 17.4 µM)
- MIC90 ([1]; 25 isolates, Row 22, >64 was Replaced with 128): 128 µg/mL (≈ 140 µM)
- Range of MICs ([1]; 25 isolates, Summary of Results, >64 was Replaced with 128): 0.5 to 128 µg/mL
- MIC ([1]; Streptococcus viridans, 25 ocular isolates, Mueller-Hinton broth with 2% lysed horse red blood cells, read-out: Median MIC): 16 µg/mL (≈ 17.4 µM)
- MIC ([1]; Streptococcus viridans, isolate 1—K1684, read-out: MIC): 8 µg/mL (≈ 8.72 µM)
- MIC ([1]; Streptococcus viridans, isolate 2—K1680, read-out: MIC): 64 µg/mL (≈ 69.8 µM)
- MIC ([1]; Streptococcus viridans, isolate 3—E546, read-out: MIC): 8 µg/mL (≈ 8.72 µM)
- MIC ([1]; Streptococcus viridans, isolate 4—E272, read-out: MIC): 16 µg/mL (≈ 17.4 µM)
- MIC ([1]; Streptococcus viridans, isolate 5—E506, read-out: MIC): > 64 µg/mL
- MIC ([1]; Streptococcus viridans, isolate 6—E496, read-out: MIC): 0.5 µg/mL (≈ 0.545 µM)
- MIC ([1]; Streptococcus viridans, isolate 7—E456, read-out: MIC): 16 µg/mL (≈ 17.4 µM)
- MIC ([1]; Streptococcus viridans, isolate 8—E432, read-out: MIC): 8 µg/mL (≈ 8.72 µM)
- MIC ([1]; Streptococcus viridans, isolate 9—E423, read-out: MIC): > 64 µg/mL
- MIC ([1]; Streptococcus viridans, isolate 10—E418, read-out: MIC): > 64 µg/mL
- MIC ([1]; Streptococcus viridans, isolate 11—E412, read-out: MIC): 8 µg/mL (≈ 8.72 µM)
- MIC ([1]; Streptococcus viridans, isolate 12—E409, read-out: MIC): 32 µg/mL (≈ 34.9 µM)
- MIC ([1]; Streptococcus viridans, isolate 13—E405, read-out: MIC): > 64 µg/mL
- MIC ([1]; Streptococcus viridans, isolate 14—E404, read-out: MIC): > 64 µg/mL
- MIC ([1]; Streptococcus viridans, isolate 15—E396, read-out: MIC): 32 µg/mL (≈ 34.9 µM)
- MIC ([1]; Streptococcus viridans, isolate 16—E262, read-out: MIC): 4 µg/mL (≈ 4.36 µM)
- MIC ([1]; Streptococcus viridans, isolate 17—E362, read-out: MIC): 16 µg/mL (≈ 17.4 µM)
- MIC ([1]; Streptococcus viridans, isolate 18—E359, read-out: MIC): 32 µg/mL (≈ 34.9 µM)
- MIC ([1]; Streptococcus viridans, isolate 19—E348, read-out: MIC): 16 µg/mL (≈ 17.4 µM)
- MIC ([1]; Streptococcus viridans, isolate 20—E344, read-out: MIC): 4 µg/mL (≈ 4.36 µM)
- MIC ([1]; Streptococcus viridans, isolate 21—E308, read-out: MIC): 4 µg/mL (≈ 4.36 µM)
- MIC ([1]; Streptococcus viridans, isolate 22—E294, read-out: MIC): 2 µg/mL (≈ 2.18 µM)
- MIC ([1]; Streptococcus viridans, isolate 23—E292, read-out: MIC): 0.5 µg/mL (≈ 0.545 µM)
- MIC ([1]; Streptococcus viridans, isolate 24—E285, read-out: MIC): 0.5 µg/mL (≈ 0.545 µM)
- MIC ([1]; Streptococcus viridans, isolate 25—E265, read-out: MIC): 8 µg/mL (≈ 8.72 µM)
- MIC ([1]; Streptococcus viridans, n=25 per group, read-out: Median MIC): 16 µg/mL (≈ 17.4 µM)
- MIC90 ([1]; Streptococcus viridans, 25 isolates, Summary of Results, >64 was Replaced with 128, read-out: MIC90): 128 µg/mL (≈ 140 µM)
- MIC50 ([1]; Streptococcus viridans, 25 isolates, Summary of Results, read-out: MIC50): 16 µg/mL (≈ 17.4 µM)
- MIC ([1]; Streptococcus viridans, 25 isolates, Summary of Results, read-out: Median MIC): 16 µg/mL (≈ 17.4 µM)
- MIC50 ([1]; n=25 per group): 16 µg/mL (≈ 17.4 µM)
- MIC90 ([1]; n=25 per group): 128 µg/mL (≈ 140 µM)
- Range of MICs ([1]; n=25 per group): 0.5 to 128 µg/mL
- MIC ([2]; 25 ocular isolates, Mueller-Hinton broth with 2% lysed horse red blood cells, read-out: Median MIC): ≤ 4 µg/mL
- MIC ([2]; isolate 1 K1614 - MS, read-out: MIC): 64 µg/mL (≈ 69.8 µM)
- MIC ([2]; isolate 2 K1661 - MS, read-out: MIC): 16 µg/mL (≈ 17.4 µM)
- MIC ([2]; isolate 3 K1643 - MS, read-out: MIC): 0.125 µg/mL (≈ 0.136 µM)
- MIC ([2]; isolate 4 K1640 - MS, read-out: MIC): 8 µg/mL (≈ 8.72 µM)
- MIC ([2]; isolate 5 B1431 - MS, read-out: MIC): 0.5 µg/mL (≈ 0.545 µM)
- MIC ([2]; isolate 6 B1429 - MS, read-out: MIC): 1 µg/mL (≈ 1.09 µM)
- MIC ([2]; isolate 7 B1418 - MS, read-out: MIC): 0.25 µg/mL (≈ 0.273 µM)
- MIC ([2]; isolate 8 K1784 - MS, read-out: MIC): 0.25 µg/mL (≈ 0.273 µM)
- MIC ([2]; isolate 9 K1773 - MS, read-out: MIC): 0.25 µg/mL (≈ 0.273 µM)
- MIC ([2]; isolate 10 K1369 - MS, read-out: MIC): 2 µg/mL (≈ 2.18 µM)
- MIC ([2]; isolate 11 B1275 - MS, read-out: MIC): 0.125 µg/mL (≈ 0.136 µM)
- MIC ([2]; isolate 12 B1221 - MS, read-out: MIC): 0.125 µg/mL (≈ 0.136 µM)
- MIC ([2]; isolate 13 B1172 - MS, read-out: MIC): > 64 µg/mL
- MIC ([2]; isolate 14 E542 - MS, read-out: MIC): 2 µg/mL (≈ 2.18 µM)
- MIC ([2]; isolate 15 K678 - MS, read-out: MIC): 0.5 µg/mL (≈ 0.545 µM)

Reference: patent US20130065818A1, “Arylamide Compounds And Compositions And Uses Thereof” (POLYMEDIX, priority 2006, published 2013)
